Values after ≈ are worked out from the molar mass of the structure shown.
Tests used:
[1] = system: Human immunodeficiency virus 1; assay: Antiviral activity against wild type HIV1 infected in human MT4 cells; assay type: functional, organism-based; details: Human immunodeficiency virus 1, MT4
[2] = biological target: Sodium-dependent serotonin transporter (Homo sapiens, UniProt P31645); assay: Inhibition of 5HT transporter (unknown origin)
Plasmodium falciparum = assay: Antiplasmodial activity against chloroquine-resistant Plasmodium falciparum Dd2; assay type: functional, organism-based
RAW264.7 [3] = assay: Inhibition of LPS-induced nitric oxide production in mouse RAW264.7 cells preincubated for 15 mins followed by LPS stimulation measured after 20 hrs by griess assay; assay type: functional, cell-based
[4] = Inhibition of TNFalpha-induced NFkappaB activation in HEK293 cells preincubated for 6 hrs followed by TNFalpha addition by luciferase reporter gene assay; assay type: cell-based; details: Homo sapiens
[5] = system: Human immunodeficiency virus 1; assay: Antiviral activity against wild type HIV1 3B infected in human MT2 cells after 3 days by BrightGlo luciferase reporter gene assay; assay type: functional, organism-based; details: Human immunodeficiency virus 1, 3B, MT2, 72 h
[6] = system: Human immunodeficiency virus 1; assay: Antiviral activity against HIV1 infected in human MT4 cells; assay type: functional, organism-based; details: Human immunodeficiency virus 1, MT4
[7] = system: Mycobacterium tuberculosis; assay: Antimycobacterial activity against Mycobacterium tuberculosis; assay type: functional
[8] = system: Mycobacterium tuberculosis; assay: Antimycobacterial activity against drug-sensitive Mycobacterium tuberculosis; assay type: functional
Dihydrofolate reductase [9] = biological target: T1, Dihydrofolate reductase (Mycobacterium tuberculosis, UniProt P9WNX1); assay: Inhibition of Mycobacterium tuberculosis H37Rv DHFR
T1 sequence (P9WNX1 whole entry): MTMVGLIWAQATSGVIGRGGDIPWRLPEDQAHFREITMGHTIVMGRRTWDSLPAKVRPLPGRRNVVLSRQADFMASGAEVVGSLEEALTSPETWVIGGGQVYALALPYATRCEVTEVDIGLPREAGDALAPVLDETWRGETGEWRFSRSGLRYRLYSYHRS

Dihydrofolate reductase [10] = biological target: T2, Dihydrofolate reductase (Homo sapiens, UniProt P00374); assay: Inhibition of human DHFR
T2 sequence (P00374 whole entry): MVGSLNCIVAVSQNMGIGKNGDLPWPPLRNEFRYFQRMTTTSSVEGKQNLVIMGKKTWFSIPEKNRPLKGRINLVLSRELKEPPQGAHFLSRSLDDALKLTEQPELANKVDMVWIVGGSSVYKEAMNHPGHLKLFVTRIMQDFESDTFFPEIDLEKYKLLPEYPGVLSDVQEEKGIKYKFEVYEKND

[11] = biological target: T3, Prostaglandin G/H synthase 2 (Homo sapiens, UniProt P35354); assay: Inhibition of recombinant human COX2 assessed as decrease in PGE2 release after 10 mins by EIA
T3 sequence (P35354 whole entry): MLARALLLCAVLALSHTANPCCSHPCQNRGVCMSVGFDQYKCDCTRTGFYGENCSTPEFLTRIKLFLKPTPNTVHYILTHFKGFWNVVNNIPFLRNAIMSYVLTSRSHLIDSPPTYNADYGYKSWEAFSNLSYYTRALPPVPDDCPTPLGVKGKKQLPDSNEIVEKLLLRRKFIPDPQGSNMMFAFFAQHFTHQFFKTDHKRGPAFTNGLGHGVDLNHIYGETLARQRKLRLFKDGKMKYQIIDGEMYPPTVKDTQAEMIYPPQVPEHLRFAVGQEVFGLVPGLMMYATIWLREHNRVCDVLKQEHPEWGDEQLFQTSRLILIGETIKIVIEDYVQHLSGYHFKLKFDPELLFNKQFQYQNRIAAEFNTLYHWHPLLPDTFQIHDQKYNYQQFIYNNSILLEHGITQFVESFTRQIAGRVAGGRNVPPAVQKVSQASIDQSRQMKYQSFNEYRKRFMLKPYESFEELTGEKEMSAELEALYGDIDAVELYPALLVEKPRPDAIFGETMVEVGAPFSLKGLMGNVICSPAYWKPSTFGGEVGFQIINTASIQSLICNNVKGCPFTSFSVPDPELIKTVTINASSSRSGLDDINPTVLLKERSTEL

RAW264.7 [12] = assay: Inhibition of nitric oxide production in mouse RAW264.7 cells by griess assay; assay type: functional, cell-based
Mus musculus = assay: Antidiabetic activity in db/db mouse assessed as reduction in serum glucose level at 10 to 30 mg/kg, po after 1 week relative to control; assay type: functional; parameters: scale not given: the % may be the effect or the level left
[13] = system: Human immunodeficiency virus 1; assay: Antiviral activity against HIV1 infected in human C8166 cells; assay type: functional, organism-based; details: Human immunodeficiency virus 1, C8166

Chain of Sodium-dependent serotonin transporter (P31645 whole entry): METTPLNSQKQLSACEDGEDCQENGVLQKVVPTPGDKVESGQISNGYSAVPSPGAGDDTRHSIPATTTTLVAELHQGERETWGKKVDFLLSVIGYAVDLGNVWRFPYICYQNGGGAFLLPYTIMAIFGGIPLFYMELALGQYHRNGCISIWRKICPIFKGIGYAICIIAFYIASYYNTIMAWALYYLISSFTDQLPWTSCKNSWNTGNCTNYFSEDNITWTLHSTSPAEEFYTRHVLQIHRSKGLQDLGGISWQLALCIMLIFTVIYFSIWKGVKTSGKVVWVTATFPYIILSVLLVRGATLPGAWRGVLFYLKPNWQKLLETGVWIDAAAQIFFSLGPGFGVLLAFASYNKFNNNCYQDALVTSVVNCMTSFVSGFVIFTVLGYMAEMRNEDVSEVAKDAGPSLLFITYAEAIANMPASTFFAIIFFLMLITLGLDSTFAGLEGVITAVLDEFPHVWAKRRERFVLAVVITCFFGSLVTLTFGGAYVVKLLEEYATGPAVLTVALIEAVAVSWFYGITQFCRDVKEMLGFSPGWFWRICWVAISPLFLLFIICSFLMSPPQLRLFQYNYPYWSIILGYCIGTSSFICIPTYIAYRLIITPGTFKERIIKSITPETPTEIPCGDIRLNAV

In the case of `COP(=O)(c1cc(C)cc(/C=C/C#N)c1)c1c(C(N)=O)[nH]c2ccc(Cl)cc12` (stereo not drawn), the IC50 [1] is reported as 0.08 nM.

`Fc1cc2c(c(OCCNCCc3c[nH]c4ccc(F)cc34)c1)OCCC2` showed a Ki [2] of 5 nM.

For `CC1=C[C@@H]2c3c(CCN(C)C)c4ccccc4n3[C@@H](c3[nH]c4ccccc4c3CCN(C)C)[C@@H]2C(C)(C)C1`, the IC50 (Plasmodium falciparum) was 80 nM.

With `O/N=C/c1c(-c2ccccc2)[nH]c2ccccc12` the IC50 (RAW264.7 [3]) was 4400 nM and the IC50 [4] was 6900 nM.

Compound `CCOC(=O)Nc1[nH]c2ccc(Br)cc2c1C(C)(O)C(F)(F)F` (stereo not drawn) has an IC50 [5] of 3 nM.

`Cc1cc(C)nc(NS(=O)(=O)c2ccc(/N=C3\C(=O)Nc4ccccc43)cc2)n1` gave an EC50 [6] of 8 µg/mL.

For `N#Cc1ccc(C2SCC(=O)N2NC(=O)c2[nH]c3ccc(F)cc3c2-c2ccccc2)cc1` (stereo not drawn), the MIC99 [7] was 6.25 µg/mL (≈ 13.7 µM).

In the case of `CNCCc1c(/C=C/[C@@]2(C)C[C@H](C=C(C)C)c3c(CCNC)c4ccccc4n32)[nH]c2ccccc12`, the IC50 (Plasmodium falciparum) is reported as 80 to 1420 nM.

With `CNCCc1c([C@H]2[C@H]3[C@H](C=C(C)CC3(C)C)c3c(CCNC)c4ccccc4n32)[nH]c2ccccc12` the IC50 (Plasmodium falciparum) was 80 to 1420 nM.

With `C[C@@H]1[C@H]2C[C@@H](C[C@H]1NC(=O)c1cc3c(F)cc(F)cc3[nH]1)C2(C)C` the MIC [8] was 0.012 µM (≈ 3.99 ng/mL).

With `CC(C)=C[C@H]1C[C@](C)(/C=C/c2[nH]c3ccccc3c2CCN(C)C)n2c1c(CCN(C)C)c1ccccc12` the IC50 (Plasmodium falciparum) was 80 to 1420 nM.

Compound `CCCCC(O)(c1c(NC(=O)OCC)[nH]c2ccc(Br)cc12)C(F)(F)F` (stereo not drawn) has an IC50 [5] of 3 nM.

For `CC(=O)c1c(C)n(Cc2ccccc2)c2ccc(OCCCC(=O)O)cc12`, the IC50 (Dihydrofolate reductase [9]) was 150000 nM and the IC50 (Dihydrofolate reductase [10]) was 980000 nM.

Compound `COc1ccc2cc(-c3cc4ccccc4[nH]3)ccc2c1` has an IC50 [4] of 600 nM.

For `CC(=O)N1C(=O)/C(=N\c2ccc(S(=O)(=O)Nc3nc(C)cc(C)n3)cc2)c2ccccc21`, the EC50 [6] was 8000 nM.

In the case of `CC(C)=C[C@H]1C[C@@](C)(/C=C/c2[nH]c3ccccc3c2CCN(C)C)n2c1c(CCN(C)C)c1ccccc12`, the IC50 (Plasmodium falciparum) is reported as 80 to 1420 nM.

Compound `C#CCc1cn(C)c2c(O)cccc12` has an IC50 [11] of 6220 nM and an IC50 (RAW264.7 [12]) of 39800 nM.

With `O=C(NN1C(=O)CSC1c1ccc([N+](=O)[O-])cc1)c1[nH]c2ccc(F)cc2c1-c1ccccc1` (stereo not drawn) the MIC99 [7] was 6.25 µg/mL (≈ 13.1 µM).

In the case of `N#Cc1c(-c2ccccc2)[nH]c2ccccc12`, the IC50 (RAW264.7 [3]) is reported as 4800 nM and the IC50 [4] is reported as 8500 nM.

Compound `Cc1c(CC(=O)O)c2cc(O)ccc2n1C(=O)c1ccc(Cl)cc1` has an Activity (Mus musculus) of 44.3%.

With `C[C@@H]1CC[C@H]2[C@@H](C)C(=O)O[C@@H]3O[C@@]4(C)CC[C@@H]1[C@]32OO4` [ARTEMISININ] the IC50 (Plasmodium falciparum) was 80 to 1420 nM.

For `CO[C@H]1/C=C/O[C@@]2(C)Oc3c(C)c(O)c4c(O)c(c(/C=N/N5CCN(C)CC5)c(O)c4c3C2=O)NC(=O)/C(C)=C\C=C\[C@H](C)[C@H](O)[C@@H](C)[C@@H](O)[C@@H](C)[C@H](OC(C)=O)[C@@H]1C` [RIFAMPIN], the MIC99 [7] was 0.25 µg/mL (≈ 0.304 µM).

For `CN(CCOc1ccc(CC2SC(=O)NC2=O)cc1)c1ccccn1` (stereo not drawn) [ROSIGLITAZONE], the Activity (Mus musculus) was 66%.

`Cc1cn([C@H]2C[C@H](N=[N+]=[N-])[C@@H](CO)O2)c(=O)[nH]c1=O` [ZIDOVUDINE] showed an EC50 [13] of 1100 nM.
